Results as given in the CheMixHub viscosity set.
± gives the uncertainty stated by the source.

Assay: xn = mol fraction of the nth substance listed

C=CCO + O
Conditions	viscosity [mPa·s]
298.15 K, 101.33 kPa, x1 = 0.04829	1.349 ± 0.034
298.15 K, 101.33 kPa, x1 = 0.09818	1.682 ± 0.043
298.15 K, 101.33 kPa, x1 = 0.1362	1.789 ± 0.045
298.15 K, 101.33 kPa, x1 = 0.146	1.846 ± 0.047
298.15 K, 101.33 kPa, x1 = 0.2038	1.888 ± 0.048
298.15 K, 101.33 kPa, x1 = 0.2149	1.895 ± 0.048
298.15 K, 101.33 kPa, x1 = 0.2178	1.887 ± 0.048
298.15 K, 101.33 kPa, x1 = 0.2213	1.892 ± 0.048
298.15 K, 101.33 kPa, x1 = 0.2883	1.891 ± 0.048
298.15 K, 101.33 kPa, x1 = 0.3655	1.796 ± 0.045
298.15 K, 101.33 kPa, x1 = 0.4148	1.75 ± 0.044
298.15 K, 101.33 kPa, x1 = 0.6057	1.537 ± 0.039
303.15 K, 101 kPa, x1 = 0.1	1.415 ± 0.013
303.15 K, 101 kPa, x1 = 0.199	1.604 ± 0.015
303.15 K, 101 kPa, x1 = 0.299	1.603 ± 0.015
303.15 K, 101 kPa, x1 = 0.4	1.531 ± 0.014
303.15 K, 101 kPa, x1 = 0.5	1.44 ± 0.013
303.15 K, 101 kPa, x1 = 0.6	1.369 ± 0.013
303.15 K, 101 kPa, x1 = 0.696	1.297 ± 0.012
303.15 K, 101 kPa, x1 = 0.795	1.233 ± 0.011
303.15 K, 101 kPa, x1 = 0.896	1.176 ± 0.011
313.15 K, 101 kPa, x1 = 0.1	1.082 ± 0.01
313.15 K, 101 kPa, x1 = 0.199	1.23 ± 0.012
313.15 K, 101 kPa, x1 = 0.299	1.238 ± 0.012
313.15 K, 101 kPa, x1 = 0.4	1.202 ± 0.011
313.15 K, 101 kPa, x1 = 0.5	1.143 ± 0.011
313.15 K, 101 kPa, x1 = 0.6	1.096 ± 0.01
313.15 K, 101 kPa, x1 = 0.696	1.045 ± 0.0099
313.15 K, 101 kPa, x1 = 0.795	1.002 ± 0.0096
313.15 K, 101 kPa, x1 = 0.896	0.9616 ± 0.0092
318.15 K, 101 kPa, x1 = 0.1	0.9613 ± 0.0091
318.15 K, 101 kPa, x1 = 0.199	1.09 ± 0.01
318.15 K, 101 kPa, x1 = 0.299	1.103 ± 0.01
318.15 K, 101 kPa, x1 = 0.4	1.072 ± 0.01
318.15 K, 101 kPa, x1 = 0.5	1.031 ± 0.0097
318.15 K, 101 kPa, x1 = 0.6	0.991 ± 0.0094
318.15 K, 101 kPa, x1 = 0.696	0.9463 ± 0.009
318.15 K, 101 kPa, x1 = 0.795	0.9099 ± 0.0087
318.15 K, 101 kPa, x1 = 0.896	0.876 ± 0.0084
323.15 K, 101 kPa, x1 = 0.1	0.8601 ± 0.0083
323.15 K, 101 kPa, x1 = 0.199	0.9754 ± 0.0093
323.15 K, 101 kPa, x1 = 0.299	0.9907 ± 0.0094
323.15 K, 101 kPa, x1 = 0.4	0.9622 ± 0.0091
323.15 K, 101 kPa, x1 = 0.5	0.9263 ± 0.0088
323.15 K, 101 kPa, x1 = 0.6	0.8973 ± 0.0086
323.15 K, 101 kPa, x1 = 0.696	0.8586 ± 0.0082
323.15 K, 101 kPa, x1 = 0.795	0.8284 ± 0.008
323.15 K, 101 kPa, x1 = 0.896	0.8008 ± 0.0077

CC(=O)[O-].[Na+] + O
viscosity [mPa·s], 101.33 kPa
Conditions	293.15 K	298.15 K	303.15 K
x1 = 0.0046	1.082 ± 0.049	0.965 ± 0.043	0.863 ± 0.039
x1 = 0.0112	1.217 ± 0.054	1.083 ± 0.048	0.968 ± 0.043
x1 = 0.0172	1.355 ± 0.06	1.205 ± 0.053	1.075 ± 0.047
x1 = 0.0215	1.466 ± 0.066	1.302 ± 0.058	1.16 ± 0.052
x1 = 0.0287	1.673 ± 0.075	1.484 ± 0.066	1.32 ± 0.059
x1 = 0.0343	1.857 ± 0.083	1.645 ± 0.074	1.462 ± 0.065
x1 = 0.0402	2.076 ± 0.093	1.836 ± 0.082	1.629 ± 0.073
x1 = 0.0467	2.35 ± 0.11	2.076 ± 0.093	1.839 ± 0.082
x1 = 0.0505	2.529 ± 0.12	2.232 ± 0.1	1.975 ± 0.089
x1 = 0.0572	2.883 ± 0.13	2.54 ± 0.12	2.244 ± 0.1
x1 = 0.0652	3.379 ± 0.15	2.97 ± 0.13	2.619 ± 0.12

CN1CCC[C@H]1c1cccnc1 + O
viscosity [mPa·s]
Conditions	298.15 K	303.15 K	308.15 K	318.05 K	323.15 K
100 kPa, x1 = 0.006	–	1.33 ± 0.03	–	1.15 ± 0.02	–
100 kPa, x1 = 0.1	–	7.1 ± 0.2	–	4.1 ± 0.1	–
100 kPa, x1 = 0.3	–	14.2 ± 0.4	–	6.2 ± 0.2	–
100 kPa, x1 = 0.4	–	17.3 ± 0.5	–	5.8 ± 0.2	–
100 kPa, x1 = 0.5	–	11.1 ± 0.3	–	5 ± 0.1	–
100 kPa, x1 = 0.6	–	5.8 ± 0.1	–	3.1 ± 0.1	–
100 kPa, x1 = 0.7	–	4.5 ± 0.1	–	2.8 ± 0.1	–
100 kPa, x1 = 0.8	–	4.8 ± 0.1	–	3.5 ± 0.1	–
100 kPa, x1 = 0.9	–	2 ± 0.1	–	1.3 ± 0.1	–
101 kPa, x1 = 0.1202	11.12 ± 0.31	–	6.629 ± 0.18	–	3.436 ± 0.1
101 kPa, x1 = 0.1977	19.96 ± 0.54	–	10.4 ± 0.29	–	4.771 ± 0.15
101 kPa, x1 = 0.2424	23.83 ± 0.65	–	12.08 ± 0.34	–	5.382 ± 0.17
101 kPa, x1 = 0.2592	25.19 ± 0.69	–	12.24 ± 0.35	–	5.493 ± 0.17
101 kPa, x1 = 0.2808	24.43 ± 0.67	–	12.19 ± 0.34	–	5.403 ± 0.17
101 kPa, x1 = 0.3047	23.6 ± 0.65	–	12.1 ± 0.34	–	5.304 ± 0.16
101 kPa, x1 = 0.3692	21.03 ± 0.57	–	11.15 ± 0.31	–	5.146 ± 0.16
101 kPa, x1 = 0.4852	15.84 ± 0.43	–	8.817 ± 0.24	–	4.426 ± 0.13
101 kPa, x1 = 0.6052	11.43 ± 0.31	–	6.572 ± 0.18	–	3.624 ± 0.1
101 kPa, x1 = 0.7285	7.954 ± 0.22	–	4.832 ± 0.13	–	2.834 ± 0.078
101 kPa, x1 = 0.8635	5.014 ± 0.14	–	3.811 ± 0.1	–	2.486 ± 0.067
